Measurements as given in patent US9605008B2, “Benzyl-1H-pyrazolo[3,4-b]pyridines and use thereof” (BAYER PHARMA AKTIENGESELLSCHAFT, priority 2013, dated 2017).

Legend:
[1] = molecular target: recombinant guanylate cyclase reporter cell line (Rattus norvegicus (Rat), UniProt P19686+P20595); assay: Effect on a recombinant guanylate cyclase reporter cell line; format: cell-based; conditions: in some cases means of individual determinations
Experimental: B-2. Effect on a Recombinant Guanylate Cyclase Reporter Cell Line
The cellular activity of the compounds according to the invention is determined using a recombinant guanylate cyclase reporter cell line, as described in F. Wunder et al., Anal. Biochem. 339, 104-112 (2005).
Representative values (MEC=minimum effective concentration) for the compounds according to the invention are shown in the table below (Table 1; in some cases as means of individual determinations): […]

[2] = molecular target: human phosphodiesterase 5 (PDE 5) (Homo sapiens (Human), UniProt O76074); assay: Inhibition of human phosphodiesterase 5 (PDE 5); format: biochemical; conditions: PDE 5 preparation from human platelets; [8-3H] cGMP substrate, SPA; in some cases means of individual determinations
Experimental: B-3. Inhibition of Human Phosphodiesterase 5 (PDE 5)
PDE 5 preparations are obtained from human platelets by disruption (Microfluidizer®, 800 bar, 3 passes), followed by centrifugation (75000 g, 60 min, 4° C.) and ion exchange chromatography of the supernatant on a Mono Q 10/10 column (linear sodium chloride gradient, elution with a 0.2-0.3M solution of sodium chloride in buffer (20 mM Hepes pH 7.2, 2 mM magnesium chloride). Fractions having PDE 5 activity are combined (PDE 5 preparation) and stored at −80° C.
To determine their in vitro action on human PDE 5, the test substances are dissolved in 100% DMSO and serially diluted. Typically, dilution series (1:3) from 200 μM to 0.091 μM are prepared (resulting final concentrations in the test: 4 μM to 0.0018 μM). In each case 2 μl of the diluted substance solutions are placed into the wells of microtitre plates (Isoplate-96/200W; Perkin Elmer). Subsequently, 50 μl of a dilution of the above-described PDE 5 preparation are added. The dilution of the PDE 5 preparation is chosen such that during the later incubation less than 70% of the substrate are converted (typical dilution: 1:100; dilution buffer: 50 mM tris/hydrochloric acid pH 7.5, 8.3 mM magnesium chloride, 1.7 mM EDTA, 0.2% BSA). The substrate, [8-^3H] cyclic guanosine-3′,5′-monophosphate (1 μCi/μl; Perkin Elmer) is diluted 1:2000 with assay buffer (50 mM tris/hydrochloric acid pH 7.5, 8.3 mM magnesium chloride, 1.7 mM EDTA) to a concentration of 0.0005 μCi/μl. By addition of 50 μl (0.025 μCi) of the diluted substrate, the enzyme reaction is finally started. The test mixtures are incubated at room temperature for 60 min and the reaction is stopped by adding 25 μl of a suspension of 18 mg/ml yttrium scintillation proximity beads in water (phosphodiesterase beads for SPA assays, RPNQ 0150, Perkin Elmer). The microtitre plates are sealed with a film and left to stand at room temperature for 60 min. Subsequently, the plates are analysed for 30 s per well in a Microbeta scintillation counter (Perkin Elmer). IC50 values are determined using the graphic plot of the substance concentration against percentage PDE 5 inhibition.

Sequence of recombinant guanylate cyclase reporter cell line (P19686 whole entry): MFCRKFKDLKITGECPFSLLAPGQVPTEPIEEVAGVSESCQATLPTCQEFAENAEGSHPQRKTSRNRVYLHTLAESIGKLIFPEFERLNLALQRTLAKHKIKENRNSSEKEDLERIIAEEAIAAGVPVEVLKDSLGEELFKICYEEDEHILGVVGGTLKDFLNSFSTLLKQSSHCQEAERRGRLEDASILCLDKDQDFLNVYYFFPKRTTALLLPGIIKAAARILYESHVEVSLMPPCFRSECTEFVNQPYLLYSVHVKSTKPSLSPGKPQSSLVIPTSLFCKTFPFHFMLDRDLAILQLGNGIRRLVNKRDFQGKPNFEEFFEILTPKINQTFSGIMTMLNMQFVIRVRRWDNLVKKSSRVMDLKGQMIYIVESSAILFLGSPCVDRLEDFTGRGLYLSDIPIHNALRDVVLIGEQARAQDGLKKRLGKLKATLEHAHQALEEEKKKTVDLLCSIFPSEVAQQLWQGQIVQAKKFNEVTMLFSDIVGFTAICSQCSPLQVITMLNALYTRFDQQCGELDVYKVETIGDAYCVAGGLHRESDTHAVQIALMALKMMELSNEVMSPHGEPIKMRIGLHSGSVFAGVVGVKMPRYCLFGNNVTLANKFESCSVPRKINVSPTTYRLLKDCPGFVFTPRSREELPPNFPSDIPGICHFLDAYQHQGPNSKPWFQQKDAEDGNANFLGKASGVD
Sequence of recombinant guanylate cyclase reporter cell line (P20595 whole entry): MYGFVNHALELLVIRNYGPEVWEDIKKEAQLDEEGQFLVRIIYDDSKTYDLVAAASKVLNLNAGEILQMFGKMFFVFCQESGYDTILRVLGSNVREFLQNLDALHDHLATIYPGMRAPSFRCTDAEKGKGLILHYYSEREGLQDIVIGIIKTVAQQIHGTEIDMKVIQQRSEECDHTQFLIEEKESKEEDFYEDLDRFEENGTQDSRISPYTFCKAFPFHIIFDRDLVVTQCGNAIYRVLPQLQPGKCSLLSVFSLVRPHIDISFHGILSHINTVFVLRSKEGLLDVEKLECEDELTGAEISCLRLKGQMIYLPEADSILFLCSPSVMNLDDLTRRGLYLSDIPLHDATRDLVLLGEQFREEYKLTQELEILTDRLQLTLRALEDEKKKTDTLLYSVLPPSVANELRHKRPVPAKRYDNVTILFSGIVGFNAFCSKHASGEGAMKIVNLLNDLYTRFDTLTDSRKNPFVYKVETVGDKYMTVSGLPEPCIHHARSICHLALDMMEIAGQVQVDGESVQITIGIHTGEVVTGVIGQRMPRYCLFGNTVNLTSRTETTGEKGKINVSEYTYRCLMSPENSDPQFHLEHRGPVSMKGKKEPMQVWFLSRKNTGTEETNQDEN

In the case of `Cc1nc2c(cc1F)c(-c1nnc3c(n1)NC(=O)C3(C)C)nn2Cc1c(F)ccc(F)c1F` [Example 11, 3-[5-Fluoro-6-methyl-1-(2,3,6-trifluorobenzyl)-1H-pyrazolo[3,4-b]pyridin-3-yl]-7,7-dimethyl-5,7-dihydro-6H-pyrrolo[2,3-e][1,2,4]triazin-6-one], the “MEC (minimum effective concentration)” value [1] is reported as 30 nM and the IC50 [2] is reported as 27 nM.

In the case of `Cc1ccc2c(-c3nnc4c(n3)NC(=O)C4(C)C)nn(Cc3c(F)cccc3F)c2n1` [Example 16, 3-[1-(2,6-Difluorobenzyl)-6-methyl-1H-pyrazolo[3,4-b]pyridin-3-yl]-7,7-dimethyl-5,7-dihydro-6H-pyrrolo[2,3-e][1,2,4]triazin-6-one], the “MEC (minimum effective concentration)” value [1] is reported as 300 nM and the IC50 [2] is reported as 24 nM.

For `Cc1nc2c(cc1F)c(-c1nnc3c(n1)[N-]C(=O)C3(C)C)nn2Cc1cccc(F)c1F.[Na+]` [Example 2, Sodium 3-[1-(2,3-difluorobenzyl)-5-fluoro-6-methyl-1H-pyrazolo[3,4-b]pyridin-3-yl]-7,7-dimethyl-6-oxo-6,7-dihydropyrrolo[2,3-e][1,2,4]triazin-5-ide], the “MEC (minimum effective concentration)” value [1] was 30 nM and the IC50 [2] was 5 nM.

For `Cc1ccc2c(-c3nnc4c(n3)NC(=O)C4(C)C)nn(Cc3ccc(F)cc3F)c2n1` [Example 8, 3-[1-(2,4-Difluorobenzyl)-6-methyl-1H-pyrazolo[3,4-b]pyridin-3-yl]-7,7-dimethyl-5,7-dihydro-6H-pyrrolo[2,3-e][1,2,4]triazin-6-one], the “MEC (minimum effective concentration)” value [1] was 300 nM and the IC50 [2] was 34 nM.

An IC50 [2] of 16 nM was found for `Cc1ccc(Cn2nc(-c3nnc4c(n3)NC(=O)C43CC3)c3ccc(C)nc32)c(F)c1` [Example 22, 3′-[1-(2-Fluoro-4-methylbenzyl)-6-methyl-1H-pyrazolo[3,4-b]pyridin-3-yl]spiro[cyclopropane-1,7′-pyrrolo[2,3-e][1,2,4]triazin]-6′(5′H)-one] in this work.

`Cc1ccc(Cn2nc(-c3nnc4c(n3)NC(=O)C4(C)C)c3cc(F)c(C)nc32)c(F)c1` [Example 5, 3-[5-Fluoro-1-(2-fluoro-4-methylbenzyl)-6-methyl-1H-pyrazolo[3,4-b]pyridin-3-yl]-7,7-dimethyl-5,7-dihydro-6H-pyrrolo[2,3-e][1,2,4]triazin-6-one] was tested, and the “MEC (minimum effective concentration)” value [1] was 100 nM and the IC50 [2] was 1.5 nM.

`Cc1ccc2c(-c3nnc4c(n3)NC(=O)C4(C)C)nn(Cc3cccc(Cl)c3F)c2n1` [Example 14, 3-[1-(3-Chloro-2-fluorobenzyl)-6-methyl-1H-pyrazolo[3,4-b]pyridin-3-yl]-7,7-dimethyl-5,7-dihydro-6H-pyrrolo[2,3-e][1,2,4]triazin-6-one] was tested, and the “MEC (minimum effective concentration)” value [1] was 300 nM and the IC50 [2] was 63 nM.

With `Cc1nc2c(cc1F)c(-c1nnc3c(n1)NC(=O)C3(C)C)nn2Cc1cccc(F)c1F` [Example 1, 3-[1-(2,3-Difluorobenzyl)-5-fluoro-6-methyl-1H-pyrazolo[3,4-b]pyridin-3-yl]-7,7-dimethyl-5,7-dihydro-6H-pyrrolo[2,3-e][1,2,4]triazin-6-one] the “MEC (minimum effective concentration)” value [1] was 30 nM and the IC50 [2] was 5 nM.

For `Cc1ccc2c(-c3nnc4c(n3)NC(=O)C43CC3)nn(Cc3cccc(F)c3F)c2n1` [Example 24, 3′-[1-(2,3-Difluorobenzyl)-6-methyl-1H-pyrazolo[3,4-b]pyridin-3-yl]spiro[cyclopropane-1,7′-pyrrolo[2,3-e][1,2,4]triazin]-6′(5′H)-one], the “MEC (minimum effective concentration)” value [1] was 300 nM and the IC50 [2] was 21 nM.

For `Cc1ccc(Cn2nc(-c3nnc4c(n3)NC(=O)C4(C)C)c3ccc(C)nc32)c(F)c1` [Example 6, 3-[1-(2-Fluoro-4-methylbenzyl)-6-methyl-1H-pyrazolo[3,4-b]pyridin-3-yl]-7,7-dimethyl-5,7-dihydro-6H-pyrrolo[2,3-e][1,2,4]triazin-6-one], the “MEC (minimum effective concentration)” value [1] was 200 nM and the IC50 [2] was 2 nM.

For `Cc1ccc(Cn2nc(-c3nnc4c(n3)NC(=O)C4(C)C)c3cc(F)c(C)nc32)cc1F` [Example 17, 3-[5-Fluoro-1-(3-fluoro-4-methylbenzyl)-6-methyl-1H-pyrazolo[3,4-b]pyridin-3-yl]-7,7-dimethyl-5,7-dihydro-6H-pyrrolo[2,3-e][1,2,4]triazin-6-one], the “MEC (minimum effective concentration)” value [1] was 300 nM and the IC50 [2] was 8 nM.

With `Cc1nc2c(cc1F)c(-c1nnc3c(n1)NC(=O)C3(C)C)nn2Cc1cccc(Cl)c1F` [Example 13, 3-[1-(3-Chloro-2-fluorobenzyl)-5-fluoro-6-methyl-1H-pyrazolo[3,4-b]pyridin-3-yl]-7,7-dimethyl-5,7-dihydro-6H-pyrrolo[2,3-e][1,2,4]triazin-6-one] the “MEC (minimum effective concentration)” value [1] was 100 nM and the IC50 [2] was 42 nM.

With `Cc1ccc2c(-c3nnc4c(n3)NC(=O)C4(C)C)nn(Cc3ccc(C)c(F)c3)c2n1` [Example 18, 3-[1-(3-Fluoro-4-methylbenzyl)-6-methyl-1H-pyrazolo[3,4-b]pyridin-3-yl]-7,7-dimethyl-5,7-dihydro-6H-pyrrolo[2,3-e][1,2,4]triazin-6-one] the “MEC (minimum effective concentration)” value [1] was 1000 nM and the IC50 [2] was 10 nM.

With `Cc1ccc2c(-c3nnc4c(n3)NC(=O)C4(C)C)nn(Cc3ccc(Cl)cc3F)c2n1` [Example 10, 3-[1-(4-Chloro-2-fluorobenzyl)-6-methyl-1H-pyrazolo[3,4-b]pyridin-3-yl]-7,7-dimethyl-5,7-dihydro-6H-pyrrolo[2,3-e][1,2,4]triazin-6-one] the “MEC (minimum effective concentration)” value [1] was 300 nM and the IC50 [2] was 4.5 nM.

In the case of `Cc1nc2c(cc1F)c(-c1nnc3c(n1)NC(=O)C3(C)C)nn2Cc1ccc(F)cc1F` [Example 7, 3-[1-(2,4-Difluorobenzyl)-5-fluoro-6-methyl-1H-pyrazolo[3,4-b]pyridin-3-yl]-7,7-dimethyl-5,7-dihydro-6H-pyrrolo[2,3-e][1,2,4]triazin-6-one], the “MEC (minimum effective concentration)” value [1] is reported as 100 nM and the IC50 [2] is reported as 21 nM.

In the case of `Cc1nc2c(cc1F)c(-c1nnc3c(n1)NC(=O)C3(C)C)nn2Cc1ccc(Cl)cc1F` [Example 9, 3-[1-(4-Chloro-2-fluorobenzyl)-5-fluoro-6-methyl-1H-pyrazolo[3,4-b]pyridin-3-yl]-7,7-dimethyl-5,7-dihydro-6H-pyrrolo[2,3-e][1,2,4]triazin-6-one], the “MEC (minimum effective concentration)” value [1] is reported as 300 nM and the IC50 [2] is reported as 6 nM.

With `Cc1ccc2c(-c3nnc4c(n3)NC(=O)C4(C)C)nn(Cc3ccc(C)c(F)c3F)c2n1` [Example 20, 3-[1-(2,3-Difluoro-4-methylbenzyl)-6-methyl-1H-pyrazolo[3,4-b]pyridin-3-yl]-7,7-dimethyl-5,7-dihydro-6H-pyrrolo[2,3-e][1,2,4]triazin-6-one] the “MEC (minimum effective concentration)” value [1] was 300 nM and the IC50 [2] was 0.65 nM.

In the case of `Cc1nc2c(cc1F)c(-c1nnc3c(n1)NC(=O)C3(C)C)nn2Cc1c(F)cccc1F` [Example 15, 3-[1-(2,6-Difluorobenzyl)-5-fluoro-6-methyl-1H-pyrazolo[3,4-b]pyridin-3-yl]-7,7-dimethyl-5,7-dihydro-6H-pyrrolo[2,3-e][1,2,4]triazin-6-one], the “MEC (minimum effective concentration)” value [1] is reported as 65 nM and the IC50 [2] is reported as 67 nM.

For `Cc1ccc2c(-c3nnc4c(n3)NC(=O)C4(C)C)nn(Cc3c(F)ccc(F)c3F)c2n1` [Example 12, 7,7-Dimethyl-3-[6-methyl-1-(2,3,6-trifluorobenzyl)-1H-pyrazolo[3,4-b]pyridin-3-yl]-5,7-dihydro-6H-pyrrolo[2,3-e][1,2,4]triazin-6-one], the “MEC (minimum effective concentration)” value [1] was 300 nM and the IC50 [2] was 21 nM.

In the case of `Cc1ccc(Cn2nc(-c3nnc4c(n3)NC(=O)C4(C)C)c3cc(F)c(C)nc32)c(F)c1F` [Example 19, 3-[1-(2,3-Difluoro-4-methylbenzyl)-5-fluoro-6-methyl-1H-pyrazolo[3,4-b]pyridin-3-yl]-7,7-dimethyl-5,7-dihydro-6H-pyrrolo[2,3-e][1,2,4]triazin-6-one], the “MEC (minimum effective concentration)” value [1] is reported as 300 nM and the IC50 [2] is reported as 0.25 nM.

`Cc1ccc2c(-c3nnc4c(n3)NC(=O)C43CC3)nn(Cc3ccc(C)c(F)c3F)c2n1` [Example 26, 3′-[1-(2,3-Difluoro-4-methylbenzyl)-6-methyl-1H-pyrazolo[3,4-b]pyridin-3-yl]spiro[cyclopropane-1,7′-pyrrolo[2,3-e][1,2,4]triazin]-6′(5′H)-one] was tested, and the “MEC (minimum effective concentration)” value [1] was 300 nM and the IC50 [2] was 4 nM.
